# Columns and labels:
# [1] = test system: MCF-7/DOX cells; assay: Flow cytometry of the cell cycle, MCF-7/DOX; type: cell-based, human; settings: 24 h
# Method: MCF-7 or MCF-7/DOX cells were plated in 6-well culture plates (1.5 × 10^5 cells per well). After incubation overnight, various concentrations of 6b or curcumin were added and cells were incubated for 24 h. Cells were harvested, washed with cold PBS, and incubated with pre-cooled 70% ethanol for a minimum of 4 h at 4 °C to fix them. The cells were then centrifuged, carefully aspirated from the supernatant, and re-suspended in a propidium iodide (final concentration, 40 μg/ml) and RNase A (final concentration, 100 μg/ml) solution at a final cell density of 0.5 × 10^6 cells/ml. The suspension was incubated at 37 °C for 30 min prior to analysis by flow cytometry.
# [2] = test system: STAT3; assay: Western blot of STAT3 phosphorylation; type: cell-based, human; settings: MCF-7 and MCF-7/DOX cells
# Method: (§1) MCF-7 or MCF-7/DOX cells were incubated with various concentrations of 6b for 24 h. After trypsinization, cells were treated with 1× RIPA lysis buffer (50 mM Tris–HCl, pH 7.4, 150 mM NaCl, 0.25% deoxycholic acid, 1% NP-40, 1 mM EDTA and protease inhibitors) (Amresco, Solon, USA) to extract the total proteins. An aliquot of proteins from the total cell lysates (30 to 60 μg/lane) was separated by sodium dodecyl sulfate (10%) polyacrylamide gel electrophoresis (SDS–PAGE, Bio-Rad Laboratories, Hercules, CA), wet-transferred to NC membrane (Bio-Rad Laboratories, Hercules, CA) and blotted with primary antibodies specific for STAT3, p-STAT3, p-Jak2, Jak2, p-Src, Src, Erk, P-Erk, PARP, cleaved PARP, Bcl-2, Bax, Cyclin D1, P-gp and GAPDH. Bound immuno-complexes were detected using ChemiDOC™ XRS + system (Bio-Rad Laboratories, Hercules, CA).
# [3] = test system: MCF-7/DOX cells; assay: MTT anti-proliferative assay, MCF-7/DOX; type: cell-based, human; settings: Homo sapiens, MCF7-DOX; MTT, 48 h; read-out: MCF-7/DOX IC50 ± SD
# Method: (§2) All cell lines were purchased from Cell Bank of Shanghai Institute of Biochemistry and Cell Biology, Chinese Academy of Sciences (Shanghai, China). Human breast carcinoma cells (MCF-7 and MCF-7/DOX), breast epithelial cells (MCF-10A) and normal human liver cells (LO2) were maintained in RPMI-1640 medium. All cells were supplemented with 12% fetal bovine serum containing 50 μg/ml penicillin and 50 μg/ml streptomycin. Cells were grown to 80% confluency in a tissue culture flask at 37 °C in a humidified atmosphere containing 5% CO2, and then were trypsinized with 1 × Trypsin-Versene and split. The MCF-7/DOX cell line we used was established from its parental cell line MCF-7 cell by gradually increasing the concentration of DOX to which the cells were exposed in a stepwise manner over a period of 8 months. […] The cells were incubated in drug-free medium for at least 1 week before use.
# (§3) Cells (MCF-7, MCF-7/DOX, MCF-10A, LO2) were seeded in 96-well plates at a density of 3,000–6,000 cells per well. The cells were incubated overnight (16 h) in a humidified 5% CO2 incubator at 37 °C. After media removal, different concentrations of test compounds were added in triplicate to the plates in 200 μL of fresh media and were incubated with the cells at 37 °C for 48 h. […] Cell viability was evaluated using 3-(4, 5-dimethylthiazolyl)-2,5-diphenyltetrazoliumbromide (MTT). The absorbance was read by an ELISA reader (SpectraMax Plus384, Molecular Devices, Sunnyvale, CA) at a test wavelength of 570 nm and a reference wavelength of 630 nm. Cell viability was calculated using the following formula: […]
# [4] = test system: MCF-10A cells; assay: Annexin V-APC/7-AAD flow cytometry of apoptosis, MCF-10A; type: cell-based, human; settings: concentrations up to 4 μM
# Method: MCF-7, MCF-7/DOX or MCF-10A cells, at a density of 2.5 × 10^5 cells per well, were cultured in regular growth medium in 6-well plates for 24 h and treated in duplicate with different concentrations of 6b or curcumin for 24 h. The cells were harvested, washed and stained with 5 μL of Annexin V-APC and 5 μL of 7-AAD at room temperature for 15 min. Cells were then analyzed by flow cytometry (488 nm excitation and 600 nm emission filters) using a BD FACSCalibur flow cytometer (Becton & Dickinson Company, Franklin Lakes, NJ).
# [5] = test system: LO2 cells; assay: MTT anti-proliferative assay, LO2; type: cell-based; settings: normal human liver cells, Table 2 prints no unit, μM
# Method: as §2, §3
# [6] = test system: P-gp; assay: Western blot of P-gp; type: cell-based, human; settings: MCF-7/DOX cells, 24 h
# Method: as §1
# [7] = test system: implanted human breast tumors (MCF-7); assay: MCF-7 xenograft in BALB/c nude mice; type: in vivo; settings: 10 mg/kg ip daily for 21 days
# Method: The working solution was prepared in a Cremophor and DMSO mixture (10% Cremophor, 10% DMSO and 80% 1 × PBS) to give a 1 mg/ml solution. Athymic BALB/c nude mice (15–18 g) were injected with human breast tumor MCF-7 cells (3 × 10^6 cells in a volume of 0.2 ml) into the subcutaneous tissue of the right auxiliary region of the mice. Three days after the tumor cell inoculation, the mice were randomly sorted into three groups with six mice per group. The tumor-bearing mice were either given a daily 10 mg/kg ip injection of compound 6b or the vehicle. The treatment was initiated when the tumor burden of the mice reached approximately 50 mm^3. The tumor size was measured by caliper three times a week to document tumor growth and calculated by the formula: length × width × width/2, and the body weight was measured and recorded. Therapeutic efficacy was evaluated based on body weight loss, tumor growth inhibition [determined by using calipers and calculated by the formula: tumor inhibit rate (%) = (tumor volCon − tumor volTre)/tumor volCon] × 100. The body weight inhibitory ratio, BI (%) was calculated as BI (%) = (1 −MT/MC) × 100, where MT and MC were the average body weights of the treated and control groups, respectively. On the 22nd day, all mice were killed, and the tumors were segregated, weighed, and stored in −80 °C for later use. The levels of p-STAT3 in tumor tissues prepared from control or mice treated with 6b were analyzed by western blot assay. Apoptosis was evaluated via the TUNEL assay, and the Ki-67 assay was used to assess cancer cell proliferation.
# [8] = test system: Cyclin D1; assay: Western blot of Cyclin D1; type: cell-based, human; settings: MCF-7 and MCF-7/DOX cells, 24 h
# Method: as §1
# [9] = test system: Bcl-2; assay: Western blot of Bcl-2; type: cell-based, human; settings: MCF-7 and MCF-7/DOX cells, 24 h
# Method: as §1
smiles,measurement,setting,value
"COc1ccc(/C=C/C(=O)N2CCN(C(=O)C3=Cc4cc(Br)ccc4S3(=O)=O)CC2)cc1 [Compound 6b, (E)-1-(4-(5-bromo-1,1-dioxidobenzo[b]thiophene-2-carbonyl)piperazin-1-yl)-3-(4-methoxyphenyl)prop-2-en-1-one]",cells in the Sub-G1 phase,[1],significant increase
same,percentage of cells in the G0/G1 phase,[1],increased
same,p-STAT3 level,[2]; 1.0 μM,significantly inhibited
same,STAT3 phosphorylation at the Ser727 residue,[2]; 24 h,little effect
same,STAT3 phosphorylation at the pTyr705 residue,[2]; 24 h,dose-dependent inhibition
same,total STAT3 protein level,[2]; 24 h,little effect
same,IC50,[3],0.4 ± 0.01 µM
same,apoptosis,[4],little
same,IC50,[5]; 48 h,8.31 ± 0.41 µM
same,IC50,"[5]; Homo sapiens, L02, 48 h",8.3 µM
same,P-gp expression,[6],decreased P-gp expression in MCF-7/DOX cells in a dose-dependent manner
same,Ki-67 immunohistochemical staining in tumor tissues,[7],suppressed tumor cell proliferation
same,TUNEL assay of tumor cells,[7],induced tumor cell apoptosis
same,changes in the body weights of the mice,[7],no significant changes
same,reduction of the weight of the tumor tissues compared with the control,[7],68.2%
same,p-STAT3 in lysates from the tumor tissues (immunoblotting),[7]; vs control tumors,suppression of p-STAT3
same,volumes of the implanted human breast tumors,[7]; vs vehicle,significantly reduced
same,expression of Cyclin D1 (protein),[8],inhibited
same,expression of Bcl-2 (protein),[9],inhibited
